# Columns and labels:
# HIV-1 IN mutant N155H [1] = conditions: single round infection; previously reported; cited from earlier work
# HIV-1 IN mutant S119R = experiment: single-round infectivity assay, S119R IN mutant; format: cell-based
# Protocol: (§1) The EC50 values were determined using a vector that carries the IN mutant in a single round infection assay. […] Error bars represent the standard deviations of independent experiments, n = 4, performed in triplicate.
# (§2) WT and mutant HIV-1 viral vectors were used in single-round infectivity assays to determine the antiviral potencies (EC50 values) of the compounds and the effects of the mutants on the EC50 values as previously described.[30],[54] Single round infectivity measurements were determined as done previously.[38]
# (§3) The vector pNLNgoMIVR-ΔENV.LUC has been described previously.[26] To produce the new IN mutants used in this study, the IN open reading frame was removed from pNLNgoMIVR-ΔENV.LUC by digestion with KpnI and SalI, and the resulting fragment was inserted between the KpnI and SalI sites of pBluescript KS+. Using that construct as the wild-type template, we prepared the following HIV-1 IN mutants using the QuikChange II XL site directed mutagenesis kit (Agilent Technologies, Santa Clara, CA) protocol: N117A, N117H, P142A, P142H, P142S, Y143C, Y143H, S230R, R231G, and R231K. The following sense oligonucleotides were used with matching cognate antisense oligonucleotides (not shown) (Integrated DNA Technologies, Coralville, IA) in the mutagenesis: N117A, 5′-[…]-3′; N117H, 5′-[…]-3′; P142A, 5′-[…]-3′; P142H, 5′-[…]-3′; P142S, 5′-[…]-3′; Y143C, 5′- […]-3′; Y143H, 5′-[…]-3′; S230R, 5′- […]-3′; R231G, 5′-[…]-3′; R231K, 5′-[…]-3′.
# HIV-1 IN mutant P142H = experiment: single-round infectivity assay, P142H IN mutant; format: cell-based
# Protocol: as §1
# Single round infectivity measurements were determined as done previously.[38]
# as §3
# HIV-1 IN mutant Y143H = experiment: single-round infectivity assay, Y143H IN mutant; format: cell-based
# Protocol: (§4) Figure 4 Mutations in the β5-α3 loop affect the antiviral potencies of the new compounds. The EC50 values were determined using a vector that carries the IN mutant in a single round infection assay. […] Error bars represent the standard deviations of independent experiments, n = 4, performed in triplicate.
# as §2, §3
# HIV-1 IN mutant Y143C = experiment: single-round infectivity assay, Y143C IN mutant; format: cell-based
# Protocol: as §4, §2, §3
# HIV-1 IN mutant P142A = experiment: single-round infectivity assay, P142A IN mutant; format: cell-based
# Protocol: as §4, §2, §3
# WT HIV-1 = conditions: vector carrying WT HIV-1 IN, single round infection; previously reported; cited from earlier work
# HIV-1 IN mutant R231G = experiment: single-round infectivity assay, R231G IN mutant; format: cell-based
# Protocol: (§5) Figure 5 Antiviral potencies of the new compounds against IN with mutations in the […]. The EC50 values were determined using a vector that carries the IN mutant in a single round infection assay. […] Error bars represent the standard deviations of independent experiments, n = 4, performed in triplicate.
# as §2, §3
# HIV-1 IN mutant G118R = experiment: single-round infectivity assay, G118R IN mutant; format: cell-based
# Protocol: as §1, §2, §3
# [2] = tested on: HIV-1 IN double mutant G140S/Q148H; conditions: single round infection; previously reported; cited from earlier work
# HIV-1 IN mutant N117A = experiment: single-round infectivity assay, N117A IN mutant; format: cell-based
# Protocol: as §1, §2, §3
# HIV-1 IN mutant N155H [3] = experiment: single-round infectivity assay, N155H IN mutant; format: cell-based
# Protocol: (§6) Figure 2 Antiviral activities of the new compounds against RAL-resistant mutants. The EC50 values were determined using a vector that carries WT HIV-1 IN and the RAL-resistant mutants in a single round infection assay. […] Error bars represent the standard deviations of independent experiments, n = 4, performed in triplicate. The graph has a maximum value of 550 nM.
# as §2, §3
# HIV-1 IN mutant Y143R [4] = experiment: single-round infectivity assay, Y143R IN mutant; format: cell-based
# Protocol: as §6, §2, §3
# HIV-1 IN mutant R231K = experiment: single-round infectivity assay, R231K IN mutant; format: cell-based
# Protocol: as §5, §2, §3
# HIV-1 IN mutant S230R = experiment: single-round infectivity assay, S230R IN mutant; format: cell-based
# Protocol: as §5, §2, §3
# HIV-1 IN mutant N117H = experiment: single-round infectivity assay, N117H IN mutant; format: cell-based
# Protocol: as §1, §2, §3
# [5] = tested on: HIV-1 IN double mutant G140S/Q148H; experiment: single-round infectivity assay, G140S/Q148H IN double mutant; format: cell-based
# Protocol: as §6, §2, §3
# HIV-1 IN mutant P142S = experiment: single-round infectivity assay, P142S IN mutant; format: cell-based
# Protocol: as §4, §2, §3
# HIV-1 IN mutant Y143R [6] = conditions: single round infection; previously reported; cited from earlier work
# [7] = fold change in EC50, IN mutant versus WT HIV-1
structure (smiles),measurement,setting,value
COC(=O)CNc1c(C(=O)NCc2ccc(F)cc2F)c(=O)n(O)c2ncccc12 [5′g],EC50,HIV-1 IN mutant N155H [1],19 ± 6.9 nM
same,ratio of the EC50s (our compound relative to DTG) against S119R,HIV-1 IN mutant S119R; EC50 compound / EC50 DTG,9.7
same,EC50,"HIV-1 IN mutant S119R; Human immunodeficiency virus 1, read-out: EC50 values S119R",22.3 ± 1.7 nM
same,FC S119R,HIV-1 IN mutant S119R; [7],5.9
same,ratio of the EC50s (our compound relative to DTG) against P142H,HIV-1 IN mutant P142H; EC50 compound / EC50 DTG,4.6
same,EC50,"HIV-1 IN mutant P142H; Human immunodeficiency virus 1, read-out: EC50 values P142H",12.8 ± 2.9 nM
same,FC P142H,HIV-1 IN mutant P142H; [7],3.4
same,ratio of the EC50s (our compound relative to DTG) against Y143H,HIV-1 IN mutant Y143H; EC50 compound / EC50 DTG,3.6
same,EC50,"HIV-1 IN mutant Y143H; Human immunodeficiency virus 1, read-out: EC50 values Y143H, single round infection, n = 4",7.9 ± 1 nM
same,FC Y143H,HIV-1 IN mutant Y143H; [7],2.1
same,ratio of the EC50s (our compound relative to DTG) against Y143C,HIV-1 IN mutant Y143C; EC50 compound / EC50 DTG,28.1
same,EC50,"HIV-1 IN mutant Y143C; Human immunodeficiency virus 1, read-out: EC50 values Y143C, single round infection, n = 4",39.3 ± 7.3 nM
same,FC Y143C,HIV-1 IN mutant Y143C; [7],10.3
same,ratio of the EC50s (our compound relative to DTG) against P142A,HIV-1 IN mutant P142A; EC50 compound / EC50 DTG,5.6
same,EC50,"HIV-1 IN mutant P142A; Human immunodeficiency virus 1, read-out: EC50 values P142A",14.1 ± 0.3 nM
same,FC P142A,HIV-1 IN mutant P142A; [7],3.7
same,EC50,WT HIV-1,3.8 ± 1.2 nM
same,ratio of the EC50s (our compound relative to DTG) against R231G,HIV-1 IN mutant R231G; EC50 compound / EC50 DTG,6.9
same,EC50,"HIV-1 IN mutant R231G; Human immunodeficiency virus 1, read-out: EC50 values R231G",9.7 ± 2.4 nM
same,FC R231G,HIV-1 IN mutant R231G; [7],2.6
same,ratio of the EC50s (our compound relative to DTG) against G118R,HIV-1 IN mutant G118R; EC50 compound / EC50 DTG,13.1
same,EC50,"HIV-1 IN mutant G118R; Human immunodeficiency virus 1, read-out: EC50 values G118R",171 ± 3.2 nM
same,EC50,[2],35.5 ± 15.9 nM
same,ratio of the EC50s (our compound relative to DTG) against N117A,HIV-1 IN mutant N117A; EC50 compound / EC50 DTG,2.4
same,EC50,"HIV-1 IN mutant N117A; Human immunodeficiency virus 1, read-out: EC50 values N117A",1.2 ± 0.2 nM
same,FC N117A,HIV-1 IN mutant N117A; [7],0.3
same,ratio of the EC50s (our compound relative to DTG) against N155H,HIV-1 IN mutant N155H [3]; EC50 compound / EC50 DTG,5.3
same,FC N155H,HIV-1 IN mutant N155H [3]; [7],5.0
same,ratio of the EC50s (our compound relative to DTG) against Y143R,HIV-1 IN mutant Y143R [4]; EC50 compound / EC50 DTG,1.1
same,FC Y143R,HIV-1 IN mutant Y143R [4]; [7],1.2
same,ratio of the EC50s (our compound relative to DTG) against R231K,HIV-1 IN mutant R231K; EC50 compound / EC50 DTG,2.2
same,EC50,"HIV-1 IN mutant R231K; Human immunodeficiency virus 1, read-out: EC50 values R231K, single round infection, n = 4",9.2 ± 2.1 nM
same,FC R231K,HIV-1 IN mutant R231K; [7],2.4
same,ratio of the EC50s (our compound relative to DTG) against S230R,HIV-1 IN mutant S230R; EC50 compound / EC50 DTG,1.0
same,EC50,"HIV-1 IN mutant S230R; Human immunodeficiency virus 1, read-out: EC50 values S230R",4.5 ± 1.5 nM
same,FC S230R,HIV-1 IN mutant S230R; [7],1.2
same,ratio of the EC50s (our compound relative to DTG) against N117H,HIV-1 IN mutant N117H; EC50 compound / EC50 DTG,2.3
same,EC50,"HIV-1 IN mutant N117H; Human immunodeficiency virus 1, read-out: EC50 values N117H",5.6 ± 0.9 nM
same,FC N117H,HIV-1 IN mutant N117H; [7],1.5
same,ratio of the EC50s (our compound relative to DTG) against G140S/Q148H,[5]; EC50 compound / EC50 DTG,6.1
same,FC G140S/Q148H,[5]; [7],9.3
same,ratio of the EC50s (our compound relative to DTG) against P142S,HIV-1 IN mutant P142S; EC50 compound / EC50 DTG,12.4
same,EC50,"HIV-1 IN mutant P142S; Human immunodeficiency virus 1, read-out: EC50 values P142S",27.2 ± 4.4 nM
same,FC P142S,HIV-1 IN mutant P142S; [7],7.2
same,EC50,HIV-1 IN mutant Y143R [6],4.6 ± 2.2 nM
